According to ChEMBL document CHEMBL5321257, “Development of VER-50589 analogs as novel Hsp90 inhibitors” (Bioorg Med Chem Lett, 2023):
Several values for one entry are separate records, joined by “and”; a condition that tells them apart may be missing. Equal values may be shown once. Activity calls are given as the source filed them. The rule behind the calls is not given here.

Columns and labels:
[1] = system: MCF7; experiment: Cytotoxicity against human MCF7 cells by MTT assay; format: functional, cell-based
[2] = system: ES-2; experiment: Cytotoxicity against human ES2 cells by MTT assay; format: functional, cell-based
[3] = system: HeLa; experiment: Cytotoxicity against human HeLa cells by MTT assay; format: functional, cell-based
[4] = system: MDA-MB-231; experiment: Cytotoxicity against human MDA-MB-231 cells by MTT assay; format: functional, cell-based
[5] = system: A549; experiment: Cytotoxicity against human A549 cells by MTT assay; format: functional, cell-based
[6] = Cytotoxicity against human 95-D cells by MTT assay; format: functional, cell-based
[7] = target: T1, Heat shock protein HSP90 (Homo sapiens, UniProt P07900+P08238); experiment: Inhibition of Hsp90 (unknown origin); format: protein assay
[8] = target: T1, Heat shock protein HSP90; experiment: Inhibition of Hsp90 in human A549 cells assessed as downregulation of CDK4 level by Western blot analysis; format: cell-based; conditions: dose 25-100 nM
[9] = system: A549; experiment: Induction of apoptosis in human A549 cells assessed as early apoptotic cells at 50 nM incubated for 48 hrs by annexin V-FITC/7-AAD staining based flow cytometry (reference value: 0.32 %); format: functional
[10] = system: A549; experiment: Induction of cell cycle arrest in human A549 cells assessed as accumulation at S phase at 50 nM incubated for 48 hrs by flow cytometry (reference value: 35.77 %); format: functional
[11] = system: A549; experiment: Induction of cell cycle arrest in human A549 cells assessed as accumulation at G1 phase at 10 nM incubated for 48 hrs by flow cytometry (reference value: 61.70 %); format: functional
[12] = system: A549; experiment: Induction of cell cycle arrest in human A549 cells assessed as accumulation at G1 phase at 50 nM incubated for 48 hrs by flow cytometry (reference value: 61.70 %); format: functional
[13] = system: A549; experiment: Induction of cell cycle arrest in human A549 cells assessed as accumulation at G2/G1 phase at 50 nM incubated for 48 hrs by flow cytometry (reference value: 2 %); format: functional
[14] = system: A549; experiment: Induction of apoptosis in human A549 cells assessed as necrotic cells at 200 nM incubated for 48 hrs by annexin V-FITC/7-AAD staining based flow cytometry (reference value: 0.92 %); format: functional
[15] = system: A549; experiment: Induction of apoptosis in human A549 cells assessed as necrotic cells at 50 nM incubated for 48 hrs by annexin V-FITC/7-AAD staining based flow cytometry (reference value: 0.92 %); format: functional
[16] = system: A549; experiment: Induction of cell cycle arrest in human A549 cells assessed as accumulation at G2/G1 phase at 200 nM incubated for 48 hrs by flow cytometry (reference value: 2 %); format: functional
[17] = system: A549; experiment: Induction of cell cycle arrest in human A549 cells assessed as accumulation at G2 phase at 50 nM incubated for 48 hrs by flow cytometry (reference value: 2.53 %); format: functional
[18] = system: A549; experiment: Induction of apoptosis in human A549 cells assessed as necrotic cells at 10 nM incubated for 48 hrs by annexin V-FITC/7-AAD staining based flow cytometry (reference value: 0.92 %); format: functional
[19] = system: A549; experiment: Induction of cell cycle arrest in human A549 cells assessed as accumulation at G2 phase at 200 nM incubated for 48 hrs by flow cytometry (reference value: 2.53 %); format: functional
[20] = system: A549; experiment: Anti-migration activity in human A549 cells at 0.3 to 3 nM incubated for 48 hrs by scratch wound healing assay; format: functional, cell-based; conditions: dose 0.3-3 nM
[21] = system: A549; experiment: Induction of apoptosis in human A549 cells assessed as late apoptotic cells at 50 nM incubated for 48 hrs by annexin V-FITC/7-AAD staining based flow cytometry (reference value: 0.64 %); format: functional
[22] = system: A549; experiment: Induction of apoptosis in human A549 cells assessed as viable cells at 200 nM incubated for 48 hrs by annexin V-FITC/7-AAD staining based flow cytometry (reference value: 96.1 %); format: functional; conditions: read-out: Activity
[23] = target: T1, Heat shock protein HSP90; experiment: Inhibition of Hsp90 in human A549 cells assessed as downregulation of HER2 level by Western blot analysis; format: cell-based; conditions: dose 25-100 nM
[24] = system: A549; experiment: Inhibition of colony formation in human A549 cells; format: functional, cell-based; conditions: dose 10-20 nM
[25] = system: A549; experiment: Induction of cell cycle arrest in human A549 cells assessed as accumulation at G1 phase at 200 nM incubated for 48 hrs by flow cytometry (reference value: 61.70 %); format: functional
[26] = system: A549; experiment: Induction of apoptosis in human A549 cells assessed as early apoptotic cells at 200 nM incubated for 48 hrs by annexin V-FITC/7-AAD staining based flow cytometry (reference value: 0.32 %); format: functional
[27] = system: A549; experiment: Induction of apoptosis in human A549 cells assessed as early apoptotic cells at 10 nM incubated for 48 hrs by annexin V-FITC/7-AAD staining based flow cytometry (reference value: 0.32 %); format: functional
[28] = system: A549; experiment: Induction of cell cycle arrest in human A549 cells assessed as accumulation at G2/G1 phase at 10 nM incubated for 48 hrs by flow cytometry (reference value: 2 %); format: functional
[29] = target: T1, Heat shock protein HSP90; experiment: Inhibition of Hsp90 in human A549 cells assessed as upregulation of Hsp70 level at 25 to 100 nM by Western blot analysis; format: cell-based; conditions: dose 25-100 nM
[30] = system: A549; experiment: Induction of cell cycle arrest in human A549 cells assessed as accumulation at S phase at 10 nM incubated for 48 hrs by flow cytometry (reference value: 35.77 %); format: functional
[31] = system: A549; experiment: Induction of apoptosis in human A549 cells assessed as late apoptotic cells at 10 nM incubated for 48 hrs by annexin V-FITC/7-AAD staining based flow cytometry (reference value: 0.64 %); format: functional
[32] = system: A549; experiment: Induction of apoptosis in human A549 cells assessed as viable cells at 50 nM incubated for 48 hrs by annexin V-FITC/7-AAD staining based flow cytometry (reference value: 96.1 %); format: functional; conditions: read-out: Activity
[33] = system: A549; experiment: Induction of cell cycle arrest in human A549 cells assessed as accumulation at G2 phase at 10 nM incubated for 48 hrs by flow cytometry (reference value: 2.53 %); format: functional
[34] = system: A549; experiment: Induction of apoptosis in human A549 cells assessed as viable cells at 10 nM incubated for 48 hrs by annexin V-FITC/7-AAD staining based flow cytometry (reference value: 96.1 %); format: functional; conditions: read-out: Activity
[35] = system: A549; experiment: Induction of apoptosis in human A549 cells assessed as late apoptotic cells at 200 nM incubated for 48 hrs by annexin V-FITC/7-AAD staining based flow cytometry (reference value: 0.64 %); format: functional
[36] = system: A549; experiment: Induction of cell cycle arrest in human A549 cells assessed as accumulation at S phase at 200 nM incubated for 48 hrs by flow cytometry (reference value: 35.77 %); format: functional

| Compound | IC50 [1] [µM] | IC50 [2] [µM] | IC50 [3] [µM] | IC50 [4] [µM] | IC50 [5] [µM] | IC50 [6] [µM] | IC50 [7] [µM] | Activity [9] [%] | Activity [10] [%] | Activity [12] [%] | Activity [13] [%] | Activity [14] [%] | Activity [15] [%] | Activity [16] [%] | Activity [17] [%] | Activity [19] [%] | Activity [21] [%] | viability at 0.2 µM [22] [%] | Activity [25] [%] | Activity [26] [%] | further results |
| --- | --- | --- | --- | --- | --- | --- | --- | --- | --- | --- | --- | --- | --- | --- | --- | --- | --- | --- | --- | --- | --- |
| CCNC(=O)c1noc(-c2cc(Cl)c(O)cc2O)c1-c1ccc(OC)cc1 | 0.0696 | 0.0504 | 0.219 | 0.0758 | 0.223 |  |  |  |  |  |  |  |  |  |  |  |  |  |  |  |  |
| CCNC(=O)c1noc(-c2cc(C(C)C)c(O)cc2O)c1-c1ccc([N+](=O)[O-])cc1 | 0.00289 | 0.0124 | 0.019 | 0.00526 | 0.0162 | 0.00291 | 0.015 |  |  |  |  |  |  |  |  |  |  |  |  |  |  |
| CCNC(=O)c1noc(-c2cc(C(C)C)c(O)cc2O)c1-c1ccc(P(C)(C)=O)cc1 | 0.23 | 0.156 | 0.21 | 0.214 | 0.73 | 0.676 | 0.171 |  |  |  |  |  |  |  |  |  |  |  |  |  |  |
| CCNC(=O)c1noc(-c2cc(C(C)C)c(O)cc2O)c1-c1ccc(S(C)(=O)=O)cc1 | 0.00135 | 0.0086 | 0.002 | 0.00281 | 0.00865 | 0.00169 | 0.009 | 1.7 | 15.68 | 70.94 | 2 | 2.94 | 2.24 | 2 | 13.38 | 14.76 | 3.1 | 82.5 | 78.26 | 5.98 | inhibition [8]: Dose-Dependent Effect; Activity [11]: 55.38%; Activity [18]: 0.59%; Activity [20]: Active; inhibition [23]: Dose-Dependent Effect; inhibition [24]: Dose-Dependent Effect; Activity [27]: 2.74%; Activity [28]: 2%; inhibition [29]: Active; Activity [30]: 41.43%; Activity [31]: 1.15%; viability at 0.05 µM [32]: 93%; Activity [33]: 3.19%; viability at 0.01 µM [34]: 95.5%; Activity ([35]; 48 h, 0.2 µM): 2.74% and 8.59%; Activity [36]: 6.98% |
| COC1=C2C[C@@H](C)C[C@H](OC)[C@H](O)[C@@H](C)/C=C(\C)[C@H](OC(N)=O)[C@@H](OC)/C=C\C=C(/C)C(=O)NC(=CC1=O)C2=O [GELDANAMYCIN] |  |  |  |  |  |  |  | 1.78 | 35.64 | 60.64 | 2 | 2.38 | 2.31 | 2 | 3.72 | 9.03 | 2.58 | 90.6 | 68.97 | 3.26 | viability at 0.05 µM [32]: 93.3%; Activity [35]: 3.77%; Activity [36]: 22% |
